Some test systems named below: SN12C renal; A498 renal; 786-0 renal; HCT-15 colon; U251 CNS; EKVX NSCLC; SNB-19 CNS; SF-539 CNS; OVCAR-5 ovarian; CCRF-CEM leukemia; SR leukemia; SK-MEL-2 melanoma; K-562 leukemia.
Test in all cases: growth of human tumour cells (NCI), 48 h

Each structure is given as a SMILES string.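 Five compound concentrations were applied to cells in 96-well plates for 48 hours; endpoints were derived by simple linear interpolation of the resulting dose-response curve. TGI denotes the concentration required for complete inhibition of growth.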

In the case of `COc1cc2c(cc1O)-c1c(OC)c(O)cc3c1C(C2)N(C)CC3` (stereo unspecified), the TGI with SN12C renal, in the test on A498 renal, with 786-0 renal, in the test on HCT-15 colon, in the test on U251 CNS and in the test with EKVX NSCLC was above 100 µM each time. Also, the TGI with SNB-19 CNS, with SF-539 CNS, in the test on OVCAR-5 ovarian, with CCRF-CEM leukemia, with SR leukemia and in the test on SK-MEL-2 melanoma was above 100 µM each time.
`COc1cc(S(=O)(=O)Nc2ccc(-c3csc(/N=C\C=C\c4ccccc4)n3)cc2)ccc1Cl`: the TGI in the test with SN12C renal was above 100 µM; in the test with A498 renal, 50.5 µM; in the test with 786-0 renal, above 100 µM; in the test with HCT-15 colon, above 100 µM; in the test on K-562 leukemia it was above 100 µM; in the test on EKVX NSCLC, above 100 µM. In addition, the TGI is above 100 µM in the test on SNB-19 CNS; 59.8 µM with SF-539 CNS; above 100 µM in the test with OVCAR-5 ovarian; 50.4 µM in the test on CCRF-CEM leukemia; above 100 µM with SR leukemia; 72.3 µM in the test on SK-MEL-2 melanoma.
Regarding `Cc1cc(S(=O)(=O)Nc2nc(N)nc(N(C)C)n2)c(SC(C(=O)O)c2ccccc2)cc1Cl` (stereo unspecified), the TGI in the test with SN12C renal, in the test with A498 renal, in the test with 786-0 renal, in the test with HCT-15 colon, with U251 CNS and in the test with K-562 leukemia was above 10 µM each time. For the same compound, the TGI with EKVX NSCLC, in the test on SNB-19 CNS, with SF-539 CNS, with OVCAR-5 ovarian, with CCRF-CEM leukemia and in the test with SR leukemia was above 10 µM each time. Further, the TGI with SK-MEL-2 melanoma is above 10 µM.
As for `Cc1ccc(C(=O)c2[nH]c(Nc3ccc(Cl)cc3)c(C(=S)Nc3ccccc3)c2N)cc1`, the TGI was 27.4 µM in the test with SN12C renal; 27.9 µM in the test with A498 renal; 6.4 µM in the test on 786-0 renal; 28.5 µM in the test with HCT-15 colon; 9.02 µM in the test with U251 CNS; 24 µM with K-562 leukemia. In addition, the TGI with EKVX NSCLC was 19 µM; in the test with SNB-19 CNS, 21.9 µM; with SF-539 CNS it was 17.7 µM; with OVCAR-5 ovarian, 40.9 µM; in the test with CCRF-CEM leukemia, above 100 µM; in the test on SR leukemia, 10.7 µM. Also, in the test on SK-MEL-2 melanoma, the TGI was determined as 31.7 µM.
In the case of `O=C1Cc2c(-c3ccccc3)cc(-c3ccc4ccccc4c3)nc2-c2ccccc2N1`, the TGI in the test on SN12C renal is 43.6 µM; in the test with A498 renal, 49.6 µM; in the test on 786-0 renal, above 100 µM; in the test with HCT-15 colon it was above 100 µM; with U251 CNS it was above 100 µM; in the test on K-562 leukemia, 9.41 µM. Besides, the TGI with EKVX NSCLC was 76.4 µM; in the test with SNB-19 CNS it was above 100 µM; in the test with SF-539 CNS it was above 100 µM; in the test on OVCAR-5 ovarian, above 100 µM; in the test on CCRF-CEM leukemia, above 100 µM; in the test on SR leukemia it was above 100 µM. In addition, the TGI in the test on SK-MEL-2 melanoma was above 100 µM.
As to `Cc1ccc(N=Nc2c(C)nn(C(=O)CC(=O)Nc3ccc(Cl)cc3)c2C)cc1C`, the TGI with SN12C renal, in the test on A498 renal, with 786-0 renal, in the test with U251 CNS, in the test on EKVX NSCLC and in the test with SNB-19 CNS was above 100 µM each time. Besides, the TGI in the test with SF-539 CNS was above 100 µM; in the test on OVCAR-5 ovarian, above 100 µM; in the test with CCRF-CEM leukemia, 71 µM; with SR leukemia, 39.7 µM; with SK-MEL-2 melanoma, above 100 µM.
`CCC(C)C(NC(=O)c1c2ccccc2nc2ccccc12)C(=O)O` (stereo unspecified): the TGI in the test on SN12C renal, in the test with A498 renal, with 786-0 renal, in the test with HCT-15 colon, in the test with U251 CNS and with K-562 leukemia was above 100 µM throughout. For the same compound, the TGI in the test on EKVX NSCLC, in the test on SNB-19 CNS, in the test on SF-539 CNS, in the test with OVCAR-5 ovarian, with CCRF-CEM leukemia and with SR leukemia was above 100 µM in each case. Moreover, the TGI with SK-MEL-2 melanoma is above 100 µM.
In the case of `Cc1cn(C2CC(N=[N+]=[N-])C(C(=O)O)O2)c(=O)[nH]c1=O` (stereo unspecified), the TGI with SN12C renal, in the test with A498 renal, in the test on 786-0 renal, in the test with HCT-15 colon, in the test on U251 CNS and with K-562 leukemia was above 100 µM throughout. Moreover, the TGI in the test with EKVX NSCLC, in the test on SNB-19 CNS, in the test on SF-539 CNS, in the test with OVCAR-5 ovarian, in the test on CCRF-CEM leukemia and in the test with SR leukemia was above 100 µM throughout. In the test with SK-MEL-2 melanoma, this compound yielded a TGI above 100 µM.
Consider `Cc1n(-c2ccccc2)c2c([n+]1Cc1ccc([N+](=O)[O-])cc1)C(=O)c1ccccc1C2=O`, for which the TGI is 3.08 µM in the test with SN12C renal; 25.5 µM in the test with A498 renal; 14.7 µM in the test on 786-0 renal; 22.5 µM in the test with HCT-15 colon; 3.35 µM in the test with U251 CNS; 4.64 µM with K-562 leukemia. Moreover, the TGI with EKVX NSCLC amounted to 5.7 µM; in the test with SNB-19 CNS, 3.22 µM; with SF-539 CNS it was 3.88 µM; with OVCAR-5 ovarian, 3.46 µM; in the test with CCRF-CEM leukemia, 5.46 µM; in the test on SR leukemia it was 4.9 µM. In addition, the TGI in the test on SK-MEL-2 melanoma turned out to be 2.97 µM.
Consider `NN/C(=N\S(=O)(=O)c1cccc2nsnc12)Nc1ccc(Cl)cc1`, for which the TGI in the test with SN12C renal, with A498 renal, with 786-0 renal, in the test with HCT-15 colon, in the test with U251 CNS and in the test with K-562 leukemia was above 100 µM each time. The TGI in the test with EKVX NSCLC, in the test with SNB-19 CNS, with SF-539 CNS, in the test on OVCAR-5 ovarian, with CCRF-CEM leukemia and in the test on SR leukemia was above 100 µM throughout. Moreover, the TGI in the test with SK-MEL-2 melanoma was above 100 µM.

The values are drawn from PubChem BioAssay (NCI).
